This experiment addresses T1, VHL (GST-VBC) (Homo sapiens, UniProt P40337).
T1 construct: made in house; host or cells: E. coli BL21(DE3)
Briefly: SPR binary affinity, PROTAC on immobilized GST-VBC. In kind it is binding. How it is done:
FIGS. 16A, 16B, and 16C. SPR curves assessing binary and ternary interactions. […] (C) SPR kinetic evaluation of p38δ:compound 46:VHL and p38δ:compound 50:VHL ternary complex interactions. Equimolar p38δ:PROTAC mixtures were injected onto immobilized GST-VBC and allowed to dissociate overtime. […] See Table 12 for a summary of the binary and ternary affinity and kinetic measurements.
Next, with the same setup, equimolar p38δ:PROTAC dilutions were successively injected onto immobilized VHL for 60 seconds, prior to monitoring complex dissociation for the remaining 300 seconds. […]
For the expression of GST-tagged VHL:Elongin B:Elongin C (herein referred to as GST-VHL), wild-type human VHL, Elongin B, and Elongin C were co-expressed in E. coli. […] Eluted protein was assessed for identity and purity via coomassie staining of sample run on an SDS-PAGE gel and pure elutions were pooled, concentrated, and diluted in ion-exchange buffer A (30 mM Tris pH 8.0, 5% glycerol, 1 mM DTT) until the salt concentration was 50 mM, before loading onto a Mono Q 5/50 GL column (GE Life Sciences). […] Fractions were then assessed for purity via coomassie, pooled, concentrated, and run on a Superdex-200 column (GE Life Sciences) using size-exclusion buffer (30 mM Tris pH 8.0, 100 mM NaCl, 10% glycerol, 1 mM DTT). […]

T1 sequence (P40337 whole entry): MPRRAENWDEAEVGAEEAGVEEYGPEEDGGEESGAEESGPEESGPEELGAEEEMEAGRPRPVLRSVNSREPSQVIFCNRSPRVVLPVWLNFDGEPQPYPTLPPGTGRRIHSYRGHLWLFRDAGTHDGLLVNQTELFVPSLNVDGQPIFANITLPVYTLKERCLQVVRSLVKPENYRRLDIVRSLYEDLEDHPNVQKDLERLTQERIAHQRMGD
T1 sequence (Q15370 whole entry partner): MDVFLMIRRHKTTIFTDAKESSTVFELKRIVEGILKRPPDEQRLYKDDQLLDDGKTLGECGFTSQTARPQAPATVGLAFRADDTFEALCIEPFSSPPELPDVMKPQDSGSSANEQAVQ
T1 sequence (Q15369 whole entry partner): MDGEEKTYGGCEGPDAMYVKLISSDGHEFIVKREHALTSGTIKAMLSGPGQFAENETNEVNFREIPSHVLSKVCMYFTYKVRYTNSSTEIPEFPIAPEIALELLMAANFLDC

On to `COc1cc2c(Oc3ccc(NC(=O)C4(C(=O)Nc5ccc(F)cc5)CC4)cc3F)ccnc2cc1OCCOCCOCCOc1cc(-c2scnc2C)ccc1CNC(=O)[C@@H]1C[C@@H](O)CN1C(=O)[C@H](C(C)C)N1Cc2ccccc2C1=O` [compound 46], for which binding was put at a Kd of 3.5 µM.
Then `COc1cc2c(Oc3ccc(NC(=O)C4(C(=O)Nc5ccc(F)cc5)CC4)cc3F)ccnc2cc1OCCCCOCCCCOCC(=O)N[C@H](C(=O)N1C[C@H](O)C[C@H]1C(=O)NCc1ccc(-c2scnc2C)cc1)C(C)(C)C` [compound 50, N-(3-fluoro-4-((7-(4-(4-(2-(((S)-1-((2S,4R)-4-hydroxy-2-((4-(4-methylthiazol-5-yl)benzyl)carbamoyl)pyrrolidin-1-yl)-3,3-dimethyl-1-oxobutan-2-yl)amino)-2-oxoethoxy)butoxy)buto-xy)-6-methoxyquinolin-4-yl)oxy)phenyl)-N-(4-fluorophenyl)cyclopropane-1,1-dicarboxa-mide], with 5 µM.

Values taken from patent publication US20180353501A1 (Arvinas, Inc., priority 2017, published 2018).
